Experiment [1] deals with normal human fibroblast, IMR90. The experiment can be described thus: Calcein AM viability assay, IMR90. In kind it is cell-based. The following applies: IMR-90, Calcein AM, 72 h. The protocol:
The potency of the subject kinase inhibitors, as measured by loss of cellular viability, was determined with the Calcein AM assay (Molecular Probes). Calcein AM is a substrate of intracellular esterases, which is cleaved only in viable cells to generate a fluorescent product that can be quantified with a fluorescent plate reader. The fluorescent signal is proportional to the number of viable cells, and thus loss of signal in response to the exposure of cells to the subject kinase inhibitors correlates with a loss of viability. This assay not only distinguishes cell cycle arrest, in which cells may still by viable, from loss of viability, and is thus well suited for the evaluation of the subject kinase inhibitors. A compound that is a potent cytotoxic agent may cause significant loss of cell viability in such an assay.
Cellular IC50's were determined in the human colorectal carcinoma cell line, HCT-116, and the normal human fibroblast, IMR90. Protein adjusted IC50's were also determined in HCT-116. Results of such viability assays are presented in Table 2 (HCT-116 (viability/protein adjusted) and IMR-90). IC50's (μM, non-protein adjusted) for the viability assay against HCT-116 cells are shown for further compounds of the invention in Table 4.
HCT-116 or IMR90 cells were recovered from sub-confluent plates by trypsinization and 1,000 or 4,000 cells, respectively, were plated in 24-well dishes and incubated overnight at 37° C., 5% CO2. HCT-116 cells were cultured in RPMI-1640, 10% FCS, and IMR90 cells were cultured in Minimum Essential Medium-alpha, 10% FCS. After overnight incubation to allow adherence, the media was aspirated from each well and replaced with media containing a test compound at a concentration from 0 to 250 nM, spanning a total of 7 doses. The plates were returned to the incubator and cultured for an additional 72 hours (3 days). […] After 72-hours incubation with the test compound, the cells were washed twice with 1×PBS, taking special care to remove all residual buffer.
A 5 μM Calcein AM solution was prepared by dissolving a 50 μg aliquot of Calcein (Molecular Probes catalog #C3100) in 50 μl DMSO. After the Calcein had completely dissolved (10 minutes at room temperature), it was diluted into 10 ml PBS. Calcein/PBS (0.5 ml) was added to each well. The plates were incubated for 75 minutes at 37° C. (protected from light) and the fluorescent signal was read on a fluorescent plate reader (excitation 485/20 and emission 530/25).

In experiment [2] the test system is adriamycin resistant cell line (ADR-res). The experiment can be described thus: NCI panel, adriamycin resistant cell line, SRB assay. The experiment is classed as cell-based. Conditions: Homo sapiens, 48 h. The source says: (§1) The evaluation of compounds at the National Cancer Institute in their panel of 60 cell lines provides a wealth of information regarding efficacy in a wide range of tumor types and genetic backgrounds. Included within this panel are cell lines derived from leukemia, melanoma and cancers of the lung, colon, brain, ovary, breast, prostate and kidney. Use of this panel provides a measure of the efficacy of compounds in cells with alterations in many genes that are associated with neoplastic transformation including p53 and Her2/Neu as well as those involved in metabolism and those which confer multi-drug resistance. The data generated in these cell lines with the protocol described below can be used to evaluate the activity of compounds.
(§2) Cells were grown in RPMI-1640 10% FCS and plated in 96 well micro-titer plates at densities ranging from 5,000 to 40,000 cells/well. The plates were incubated for 24 hours at 37° C., 5% CO2 for 24 hours. Media containing twice the desired final concentration of the compound (5 doses spanning 4 logs) was prepared and 100 μl was added to each well containing 100 μl media plus cells to yield the desired final concentration. The plates were then incubated for an additional 48 hours.
(§3) The effect of the compound on cellular viability was determined with the Sulforhodamine B (SRB) assay, which measures total protein. Cells were fixed with cold TCA to a final concentration of 10% and incubated at 4° C. for 60 minutes. The supernatant was discarded and the plates were washed five times with water and air-dried. SRB solution at […] in 1% acetic acid was added to each well and the plates were incubated for 10 minutes at room temperature. The plates were washed five times with 1% acetic acid and air-dried. The bound stain was solubilized with 10 mM trizma base and the absorbance was read on a plate reader at […].
On the technique in general: Sulforhodamine B stains cellular protein and so reports cell mass.

The test system of experiment [3] is HCT-116 cells. The experiment can be described thus: Clonogenic survival assay with HCT-116 cells. The experiment is classed as cell-based. The following applies: Homo sapiens. The protocol:
This assay was used to determine the concentration of a compound that results in irreversible loss of viability after a specified period of exposure. Essentially, cells are exposed to compound for a period of […], and are then transferred to compound-free growth medium. After continued incubation in the compound-free medium for a number of days, the number of colonies recovered is counted as an estimate of the number of surviving cells.
Media (RPMI-1640, 10% FCS, pen/strep) was pre-warmed to 37° C. in a water bath. Cells were incubated and grown at 37° C., 5% CO2. Cells were recovered by trypsinization from sub-confluent plates and counted using a hemocytometer. 1×10^4 cells were plated in 25 mls of media in a 15 cm tissue culture dish. […] were set up for each test compound, and were incubated overnight at 37° C. The compound was diluted into media at 7 concentrations and the media on the cells was replaced with that containing the test compound. Two plates were set up for each concentration of the compound to be tested, as well as two control plates without compound. Plates were incubated as above for […], media was removed and replaced with fresh media, and the plates were incubated an additional 7 days and washed with PBS. Colonies were stained with crystal violet solution (0.4% crystal violet, 20% ethanol) for 5 minutes, washed twice with distilled water, and counted.

For experiment [4], the system named is NCI panel of 60 cell lines. The experiment can be described thus: cells. Conditions: Homo sapiens, 60 cell, 48 h, read-out: NCI panel MG-MID (Mean-Graph Mid-point, average IC50 over panel), 48 h, SRB; IC50 <10 nM counted as 10 nM.
From the text: as §1, §2, §3

Experiment [5] concerns HCT-116 cells. The experiment can be described thus: Calcein AM viability assay, HCT-116. The experiment is classed as cell-based. Conditions: Homo sapiens. The method in brief: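 Cells (HCT-116 1,000, IMR90 4,000 per well) adhered overnight, then received 7 doses from 0 to 250 nM for 72 h at 37 °C. Viability read as calcein fluorescence after 75 min with Calcein AM; IC50 values, with protein-adjusted values also obtained in HCT-116.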

Experiment [6] has as its target protein kinase C (mixed isozymes). The experiment can be described thus: Protein kinase C TCA precipitation assay. The following applies: Table 3; read-out: PKC IC50. The experiment is classed as biochemical, rat. As for the experimental part: Enzymes: Cdc2/cyclin B was obtained from commercial sources. Cdk2/his-cyclin Eshort was expressed in Sf9 cells. Cdk2/cyclin A, cdk4/cyclin D1, and cdk6/cyclin D2 were expressed in Sf9 cells. Protein kinase A (catalytic subunit, from bovine heart) and protein kinase C (mixed isozymes from rat brain) were obtained from commercial sources.
Protein kinase C and protein kinase A were assayed using a TCA precipitation assay with Histone H1 as a substrate. For protein kinase A, the final assay contained 50 mM Tris, 10 mM MgCl2, 1 mM dithiothreitol, pH 7.5, 12 μM adenosine triphosphate, 10% (v/v) dimethylsulfoxide (from compounds), 20 μg Histone H1, 2 μCi [γ-^32P] adenosine triphosphate, 0.2 U protein kinase A in a 100 μL assay. A protein kinase C assay contained 50 mM Tris, 10 mM MgCl2, 1 mM dithiothreitol, 0.8 mM CaCl2, pH 7.5, 5 μM adenosine triphosphate, 10% (v/v) dimethylsulfoxide (from compounds), 20 μg Histone H1, 2 μCi [γ-^32P] adenosine triphosphate, 0.01 U protein kinase C in a 50 μL assay. The assays were started by the addition of enzyme, allowed to react for 10 min at 30° C., and stopped by adding 0.4 volumes of 237 mM disodium ethylenediamine tetraacetate, 105 mM adenosine triphosphate, pH 8.0. […] The filters were washed ten times with 25% (w/v) trichloroacetic acid, and the amount of incorporated [^32P]phosphate was determined by adding 100 μl Microscint and scintillation counting.

A word on the IC50: it is the midpoint of a concentration-inhibition curve.

As to `CC(C)N1CCN(CCOc2ccc(-c3[nH]nc4c3C(=O)c3c(NC(=O)NN5CCOCC5)cccc3-4)cc2)CC1` [E], the IC50 in experiment [1] is less than 100 nM; in experiment [2], less than 1000 nM; in the experiment on HCT-116 cells [3] (24 h exposure, read-out: HCT-116 IC50 Clonogenic 24 h), less than 100 nM; with HCT-116 cells [3] (72 h exposure, read-out: HCT-116 IC50 Clonogenic 72 h), less than 100 nM; in experiment [4], less than 100 nM; with HCT-116 cells [5] (HCT-116, 72 h, Calcein AM, 72 h, read-out: HCT-116 IC50 Viability), less than 100 nM. Moreover, the concentration for half-maximal inhibition (IC50) is less than 1000 nM with HCT-116 cells [5] (HCT-116, plus 1 mg/ml alpha acidic glycoprotein and 45 mg/ml human serum albumin, read-out: HCT-116 IC50 Protein adjusted); less than 10000 nM in experiment [6].
